Experimental data from patent publication US6528528B2 (Warner-Lambert Company, priority 1997, dated 2003).

Experiments:
monocytes = assay: Monocyte Recruitment Assay (chemotaxis of monocytes); type: cell-based; conditions: Monocyte; Table 3; read-out: Monocyte Recruitment Assay ED50
Procedure: Monocyte Recruitment Assay
The recruitment or chemotaxis of monocytes was assayed by methods well known to those skilled in the art. In particular, the method set forth in J. Clin. Invest., 1988;82:1853-1863, which is hereby incorporated by reference, was used.

[1] = target: T1, rabbit reticulocyte 15-LO (Oryctolagus cuniculus, UniProt P12530); assay: Rabbit Reticulocyte 15-LO Assay (h15LO); type: biochemical; conditions: for IC50: 2U rabbit reticulocyte 15-LO, 174 μM linoleic acid, 15 minutes at 4° C.; for inhibition at 10 µM: 0.25 h, read-out: h15LO % @ 10 μM
T1 construct: Fifteen-lipoxygenase was obtained from phenylhydrazine-treated rabbits and purified per the method of Rapoport; from tissue; host or cells: reticulocytes of phenylhydrazine-treated rabbits
T1 sequence (P12530 1-663): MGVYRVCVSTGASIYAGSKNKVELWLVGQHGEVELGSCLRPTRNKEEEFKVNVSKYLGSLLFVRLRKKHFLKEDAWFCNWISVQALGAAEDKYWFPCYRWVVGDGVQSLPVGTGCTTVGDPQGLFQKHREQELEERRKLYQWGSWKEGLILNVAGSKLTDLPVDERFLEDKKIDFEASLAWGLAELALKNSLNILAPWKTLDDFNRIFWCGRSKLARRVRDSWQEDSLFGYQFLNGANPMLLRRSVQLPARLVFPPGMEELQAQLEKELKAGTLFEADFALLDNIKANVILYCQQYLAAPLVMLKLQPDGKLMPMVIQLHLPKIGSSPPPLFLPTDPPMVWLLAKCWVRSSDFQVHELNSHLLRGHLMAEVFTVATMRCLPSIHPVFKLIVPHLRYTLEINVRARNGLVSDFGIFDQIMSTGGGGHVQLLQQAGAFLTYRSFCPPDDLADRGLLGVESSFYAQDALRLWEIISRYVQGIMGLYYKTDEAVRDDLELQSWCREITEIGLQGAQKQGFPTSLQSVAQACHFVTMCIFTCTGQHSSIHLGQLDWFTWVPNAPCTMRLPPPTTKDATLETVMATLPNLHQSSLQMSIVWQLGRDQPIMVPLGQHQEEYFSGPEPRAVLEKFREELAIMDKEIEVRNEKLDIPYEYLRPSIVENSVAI
Summary of the method: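 Linoleic acid oxidation to 13-HPODE measured at 4° C. over 15 minutes, using 174 μM substrate and 2U enzyme purified from phenylhydrazine-treated rabbits in PBS/0.2% Na cholate. Product peak areas calibrated with authentic 13-HODE; inhibition expressed versus maximal reaction.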

[2] = system: Rabbits fed a 0.25% cholesterol, 3% peanut oil, 3% coconut oil diet; assay: In vivo tests: aortic atherosclerotic lesions in rabbits fed a cholesterol diet; conditions: 10 mg/kg as diet admix, 12 weeks
Procedure: The entire descending thoracic aorta was assayed for its cholesteryl ester (CE), free cholesterol phospholipid content. The lipids were extracted in chloroform:methanol (2:1) by the procedure of Folch, et al. (Folch J., Lees M., Sloane-Stanley G. H. A simple method for the isolation and purification of total lipids from animal tissue, J. Biol. Chem., 1957;226:497-509) and 300-500 μL of an internal standard, i.e., 200 mg/ml solution of 4-hydroxy-cholesterol in ethyl acetate:acetone (2:1), was added to the extracts of the thoracic aortic samples. After extraction, the organic phase was dried under nitrogen and redissolved in isooctane/tetrahydro-furan (97:3). The lipid content and composition of the thoracic aorta were measured using an HPLC method.
For histologic evaluation of the aortic arch lesions and for quantification of aortic arch cross-sectional lesion area, a 1 cm segment of the ascending aorta distal to the aortic valves was fixed in 10% neutral buffered formalin for 24 hours. The vessels were dehydrated, cleared in xylene, and infiltrated with molten paraffin (<60° C.) using a Tissue Tek VIP autoprocessor (Miles Scientific, Elkhart, Ind.). The tissue segments were embedded in paraffin and sectioned at 5 μm with a Reichert-Jung microtome (Baxter, McGraw Park, Ill.). In order to obtain a thorough representation of the histologic appearance of the aortic arch lesions, 3 ribbons of 20 sections each were cut. Each ribbon of sections was spaced approximately 100 μm apart. Three pairs of sections, i.e., 1 pair from each ribbon, were affixed to cleaned 3-aminopropyltriethoxy-silane coated glass slides and stored until stained. The general histologic character was evaluated in Verhoeff's elastica stained sections.
The gross extent of atherosclerosis within the aortic arch was measured. In addition, sections of the aortic arch, a site of hypercholesterolemia-induced lesions, stained using the Verhoeff's elastica procedure were used for quantification of lesion cross-sectional. The internal elastic lamina (IEL) was identified as a blue-black ring and images of that region were collected using a digital camera. The area within the IEL was quantified using the Image Pro Plus image analysis software. The area of the lumen of the aortic arch was also quantified in a similar fashion. Lesion area was defined as the difference between the area circumscribed by the internal elastic lamina and the lumen area.
Aortic arch lesion extent was also measured. The area distal to the 1 cm segment taken for histologic evaluation to the first intercostal ostia was removed from the animal, opened longitudinally and images of the surface of the vessel was collected using a digital camera. The lesions were identified as raised, opaque areas and their area was determined using the Image Pro Plus image analysis software. The area of the entire aortic arch was also determined. The percentage of aortic arch covered by atherosclerotic lesions was calculated.

Structure (SMILES) | IC50 ([1]; Table 2) | melting point | further results
COc1ccc(C(=O)Nc2ccccc2)cc1NC(=S)NC(=O)c1ccccc1 [Example 67, 4-Methoxy-N-phenyl-3-(3-benzoyl-thioureido)-benzamide] | 10000 nM |  | EC50 (monocytes): 24100 nM
COc1ccc(C(=O)Nc2ccc(F)cc2)cc1Nc1cccc(C(F)(F)F)c1 [Example 40, 3-(3-Trifluoromethyl-phenylamino)-4-methoxy-N-(4-fluorophenyl)-benzamide] | 17 nM | 163 to 164 °C | Aortic Arch Cross-Sectional Lesion Area (% Δ from Control) [2]: −6 % Δ from Control; Aortic Arch Lesion Extent (% Δ from Control) [2]: +35 % Δ from Control; Aortic Cholesteryl Ester Content (% Δ from Control) [2]: +5 % Δ from Control
COc1ccc(C(=O)Nc2ccc(Cl)c(Cl)c2)cc1N [Example 4, 3-Amino-4-methoxy-N-(3,4-dichlorophenyl)-benzamide] |  | 179 to 182 °C | Aortic Arch Cross-Sectional Lesion Area (% Δ from Control) [2]: −94 % Δ from Control; Aortic Arch Lesion Extent (% Δ from Control) [2]: +20 % Δ from Control; Aortic Cholesteryl Ester Content (% Δ from Control) [2]: −7 % Δ from Control; IC50 ([1]; Table 1): 10 nM
COc1ccc(C(=O)Nc2ccccc2)cc1NC(=S)Nc1ccc(C(=O)O)cc1 [Example 75, 4-[3-(2-Methoxy-5-phenylcarbamoyl-phenyl)-thioureido]-benzoic acid] | 104 nM | 201 to 202 °C | Aortic Arch Cross-Sectional Lesion Area (% Δ from Control) [2]: −90 % Δ from Control; Aortic Arch Lesion Extent (% Δ from Control) [2]: −49 % Δ from Control; Aortic Cholesteryl Ester Content (% Δ from Control) [2]: −28 % Δ from Control
COc1ccc(C(=O)Nc2ccccc2)cc1NC(=S)Nc1cccc(C(F)(F)F)c1 [Example 84, 4-Methoxy-N-phenyl-3-[3-(3-trifluoromethyl-phenyl)-thioureido]-benzamide] | 20 nM | 177 to 178 °C | 
CCOc1ccc(C(=O)Nc2ccccc2)cc1Nc1cccc(C(F)(F)F)c1 [Example 42, 4-Ethoxy-3-(3-trifluoromethyl-phenylamino)-N-phenyl-benzamide] | 410 nM | 184 to 185 °C | 
O=C(Nc1ccccc1)c1cccc(Oc2ccccc2)c1 [Example 53, 3-Phenoxy-N-phenyl-benzamide] |  | 111 to 112 °C | inhibition at 10 µM ([1]; Table 2): 57%
COc1ccc(C(=O)Nc2ccccc2)cc1NC(=S)Nc1cc(C(F)(F)F)cc(C(F)(F)F)c1 [Example 89, 3-[3-(3,5-Bis-trifluoromethylphenyl)-thioureido]-4-methoxy-N-phenyl-benzamide] | 35 nM | 192 to 193 °C | 
CSc1ccc(C(=O)Nc2ccccc2)cc1Nc1cccc(C(F)(F)F)c1 [Example 43, 4-Methylsulfanyl-3-(3-trifluoromethyl-phenylamino)-N-phenyl-benzamide] | 73 nM | 169 to 170 °C | 
COc1ccc(C(=O)Nc2ccccc2)cc1NC(=S)Nc1ccc(C(F)(F)F)cc1 [Example 63, 4-Methoxy-N-phenyl-3-[3-(4-trifluoromethyl-phenyl)-thioureido]-benzamide] | 49 nM | 194 to 196 °C | 

Now from value to compound, other results behind:

IC50 ([1]; Table 2) | melting point | Structure (SMILES) | further results
8 nM | 175 to 178 °C | COc1ccc(C(=O)Nc2ccc(F)cc2)cc1NC(=S)Nc1cc(Cl)cc(Cl)c1 [Example 91, 3-[3-(3,5-Dichlorophenyl)-thioureido]-N-(4-fluorophenyl)-4-methoxy-benzamide] | Aortic Arch Cross-Sectional Lesion Area (% Δ from Control) [2]: −11 % Δ from Control; Aortic Arch Lesion Extent (% Δ from Control) [2]: −12 % Δ from Control; Aortic Cholesteryl Ester Content (% Δ from Control) [2]: +50 % Δ from Control
90 nM | 226 to 228 °C | COc1ccc(C(=O)Nc2ccc(Cl)c(Cl)c2)cc1NS(C)(=O)=O [Example 119, 3-Methanesulfonylamino-4-methoxy-N-(3,4-dichlorophenyl)-benzamide] | Aortic Arch Cross-Sectional Lesion Area (% Δ from Control) [2]: −50 % Δ from Control; Aortic Arch Lesion Extent (% Δ from Control) [2]: +46 % Δ from Control; Aortic Cholesteryl Ester Content (% Δ from Control) [2]: +46 % Δ from Control
629 nM | 165 to 166 °C | O=C(Nc1ccc(F)cc1)c1ccc(OC(F)(F)F)c(NC(=S)Nc2cc(Cl)cc(Cl)c2)c1 [Example 163, 3-[3-(3,5-Dichloro-phenyl)-thioureido]-4-trifluoromethoxy-N-(4-fluoro-phenyl)-benzamide] | 
115 nM | 189 to 190 °C | COc1ccc(C(=O)Nc2ccccc2)cc1NS(=O)(=O)c1cc(Cl)sc1Cl [Example 132, 3-(2,5-Dichlorothiophene-3-sulfonylamino)-4-methoxy-N-phenyl-benzamide] | 
9 nM | 180 to 183 °C | COc1ccc(C(=O)Nc2ccc(F)c(F)c2)cc1NC(=S)Nc1cc(Cl)cc(Cl)c1 [Example 107, 3-[3-(3,5-Dichlorophenyl)-thioureido]-N-(3,4-difluoro-phenyl)-4-methoxy-benzamide] | 
 | 163 to 165 °C | COc1ccc(S(=O)(=O)Nc2ccccc2)cc1NC(=S)Nc1cc(Cl)cc(Cl)c1 [Example 109, 3-[3-(3,5-Dichlorophenyl)-thioureido]-4-methoxy-N-phenyl-benzenesulfonamide] | inhibition at 10 µM ([1]; Table 2): 26%
167 nM | 107 to 109 °C | COc1ccc(C(=O)Nc2ccccc2)cc1NS(=O)(=O)c1ccccc1Cl [Example 127, 3-(2-Chlorobenzenesulfonylamino)-4-methoxy-N-phenyl-benzamide] | 
58 nM | 212 to 213 °C | COc1ccc(C(=O)Nc2ccccc2)cc1NS(=O)(=O)c1cccc2ccccc12 [Example 133, 3-(Naphthalene-1-sulfonylamino)-4-methoxy-N-phenyl-benzamide] | 
40 nM | 190 to 194 °C | COc1ccc(C(=O)Nc2ccccc2)cc1NS(=O)(=O)c1ccccc1 [Example 120, 3-Benzenesulfonylamino-4-methoxy-N-phenyl-benzamide] | 
63 nM | 216 °C | COc1ccc(C(=O)Nc2ccccc2)cc1NS(=O)(=O)Cc1ccccc1 [Example 135, 3-Phenylmethanesulfonylamino-4-methoxy-N-phenyl-benzamide] | 
170 nM | 155 to 160 °C | COc1ccc(C(=O)Nc2ccc(C)c(C)c2)cc1NC(=S)Nc1cccc(C)c1 [Example 102, N-(3,4-Dimethylphenyl)-4-methoxy-3-(3-m-tolyl-thioureido)-benzamide] | 
54 nM | 197 to 198 °C | COc1ccc(C(=O)Nc2ccccc2)cc1NS(=O)(=O)c1ccc(C(F)(F)F)cc1 [Example 128, 3-(4-Trifluoromethyl-benzenesulfonylamino)-4-methoxy-N-phenyl-benzamide] | 
